# Laboratory results taken from patent US20190350907A1, “METHODS AND PHARMACEUTICAL COMPOSITIONS FOR REDUCING CD95- MEDIATED CELL MOTILITY” (INSERM (INSTITUT NATIONAL DE LA SANTÉ ET DE LA RECHERCHE …, priority 2017, published 2019).
# Several values for one entry are separate records, joined by “and”; a condition that tells them apart may be missing. Equal values may be shown once. Where no end group is shown, it is not given here.
# How the values were obtained:
# CD95/FADD interaction = target: T1, CD95/FADD interaction (Homo sapiens, UniProt P25445+Q13158); assay: Renilla luciferase protein-fragment complementation assay (PCA), CD95-DD/FADD-DD; assay type: cell-based; conditions: result in words; selectivity control
# T1 construct: DD-CD95 (aa 210-303) fused to F2; the death domain of FADD (aa 80-210) (D) fused to F1; expressed in transfected cells; host or cells: HEK293T
# T1 sequence (P25445 226-319): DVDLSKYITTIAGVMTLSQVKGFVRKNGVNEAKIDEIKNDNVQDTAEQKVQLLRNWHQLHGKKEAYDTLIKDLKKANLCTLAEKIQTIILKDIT
# T1 sequence (Q13158 80-208): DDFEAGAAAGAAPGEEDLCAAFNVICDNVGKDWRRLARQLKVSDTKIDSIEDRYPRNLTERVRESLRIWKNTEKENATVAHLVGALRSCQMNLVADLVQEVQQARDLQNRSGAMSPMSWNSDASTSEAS
# Source text: FIG. 1. Identification of chemical leads from the Prestwick library inhibiting the CD95/PLCγ1 interaction. A. Schematic representation of the protein-fragment complementation assay used with CD95-CID or -DD fused to F2 and PLCγ1-SH3 or FADD-DD fused to F1 to identify inhibitors from the Prestwick library. The Renilla luciferase enzyme was divided into amino-terminal and carboxy-terminal fragments (yellow domains) and fused to the indicated domains. B. Compounds from the Prestwick library were tested against CD95/PLCγ1 or CD95/FADD PCA. This library allowed us to select 34 hits based on their ability to inhibit CD95/PLCγ1 interaction (≥70% of signal inhibition) without altering CD95/FADD binding (ratio (CD95/PLCγ1 inhibition/CD95/FADD inhibition) ≥2). […] Inhibition of CD95/FADD interaction is also assessed.
# A. CID-CD95 (aa 175-210) or DD-CD95 (aa 210-303) fused to F2 were co-transfected into HEK cells with the indicated domains of PLCγ1 (Ca^2+ response) or FADD (apoptosis) fused to F1. […] The inhibition of light emission for the indicated PPIs was assessed in cells incubated for the indicated times in the presence of TAT-CID (25 μM). […] Then, the indicated peptides fused with or without the cell-penetrating domain TAT were incubated at the indicated concentrations for 4 hrs and luminescence was assessed. […]
# [1] = system: Tfh-dependent B cell activation; assay: Tfh-dependent B-cell maturation co-culture (memory B cells with SEB-stimulated Tfh cells, s-CD95L); assay type: cell-based; conditions: preincubation of Tfh cells
# [2] = system: CD95-mediated Ca2+ signaling pathway in Tfh cells; assay: CD95-mediated Ca2+ response in Tfh cells; assay type: cell-based, human; conditions: Example 2; signal described for Th17 and circulating Tfh cells
# [3] = system: lupus-prone mice (MRL Lpr/+); conditions: repeated injections; cited from earlier work
# CD95/PLCγ1 interaction = target: T2, CD95/PLCγ1 interaction (Homo sapiens, UniProt P19174); assay: Renilla luciferase protein-fragment complementation assay (PCA), CD95-CID/PLCγ1-SH3; assay type: cell-based; conditions: PCA in HEK cells
# T2 construct: The PLCγ1-SH3 domain (aa 790-851) (C); expressed in transfected cells; host or cells: HEK293T
# T2 sequence (P19174 790-851): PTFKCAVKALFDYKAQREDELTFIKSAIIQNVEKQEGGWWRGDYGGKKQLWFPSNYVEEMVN
# Experimental: FIG. 1. […] A. Schematic representation of the protein-fragment complementation assay used with CD95-CID or -DD fused to F2 and PLCγ1-SH3 or FADD-DD fused to F1 to identify inhibitors from the Prestwick library. The Renilla luciferase enzyme was divided into amino-terminal and carboxy-terminal fragments (yellow domains) and fused to the indicated domains. B. Compounds from the Prestwick library were tested against CD95/PLCγ1 or CD95/FADD PCA. […] Inhibition of CD95/FADD interaction is also assessed.
# Light emission indicates refolding of the luciferase and reconstitution of enzyme activity through protein/protein interactions. […] Data represent means±SD of three independent experiments. […] Then, the indicated peptides fused with or without the cell-penetrating domain TAT were incubated at the indicated concentrations for 4 hrs and luminescence was assessed. Data represent means±SD of three independent experiments. […].
# HEK293T cells were electroporated with 5 μg of DNA using BTM-830 electroporation generator (BTX Instrument Division, Harvard Apparatus) with 10 μg of DNA. Transfected cells were cultured for 24 hrs prior to protein complementation assay analyses as previously described (17). Briefly, transfected cells (10^6) were washed, resuspended in 100 μl PBS and deposited in OptiPlate-96 (PerkinElmer, Waltham, Mass., USA). Coelenterazine-h (5 μM, Sigma) was injected to each well and renilla luciferase activity was monitored for the first 10 seconds using Infinite200Pro (Tecan, Männedorf, Switzerland).
# A peptide consisting of the cell-penetrating domain of TAT fused to CID (TAT-CID) binds the SH3 domain of PLCγ1 and thereby, prevents PLCγ1/CD95 interaction and the subsequent induction of the Ca^2+ response (16). […] Briefly, the Renilla luciferase enzyme was divided into two fragments (F1 and F2 fragments). […] Interaction of CD95 with PLCγ1 or FADD allows the reconstitution of RLuc and subsequent light emission (FIG. 1A). The chemical Prestwick library was screened against these PCAs (FIG. 1B). […] These molecules are designated CID inhibitors or CIDINH.
substance,measurement,setting,value
"TAT-CID: peptide consisting of the CID (CD95 amino acids 175 to 210) conjugated to the cell-penetrating domain of TAT (KRKEVQKTCRKHRKENQGSHESPTLNPETVAINLSD; not fully specified (N-terminus); also: conjugated to TAT cell-penetrating domain, site not given here)",effect on CD95/FADD interaction,CD95/FADD interaction,failed to alter
same,effect on Tfh-dependent B cell activation,[1],blocks
same,effect on sCD95L-induced Ca2+ response,[2],abrogated
same,effect on clinical symptoms,[3],alleviate clinical symptoms
same,effect on endothelial transmigration of Th17 cells in vivo,[3],block
same,IC50,"CD95/PLCγ1 interaction; peptides incubated for 4 hours, read-out: IC50, disruption of CD95/PLCγ1 interaction by peptides",10.8 µM and 11.5 µM
same,time course of inhibition of CD95/PLCγ1,CD95/PLCγ1 interaction; TAT-CID 25 μM,increased in a time dependent manner
